What follows are compounds tested on mice (assay: Acute toxicity, oral). Details: 1000 mg/kg oral, three mice per group, observed for 7 days.
Type: in vivo
Procedure: To groups of three mice each having a body weight of 20 to 30 g were orally administered 1000 mg/kg of the compounds of Examples 15 and 117 of the present invention.
In the case of `NN=C1CCc2c(-c3ccc(Cl)cc3)cn3cccc1c23` [Example 117, 1-(4-chlorophenyl)-8,9-dihydro-7H-pyrrolo-[3,2,1-ij]quinolin-7-one hydrazone], the “death within 7 days (acute toxicity)” value is reported as “no mouse was found dead”.
In the case of `NN=C1CCn2c(-c3ccc(Cl)cc3)nc3cccc1c32` [Example 15, 2-(4-chlorophenyl)-4,5-dihydro-6H-imidazo-[4,5,1-ij]quinolin-6-one hydrazone], the “death within 7 days (acute toxicity)” value is reported as “no mouse was found dead”.

These compounds were tested on IgE antibody production (assay: Activity to inhibit the IgE antibody production in mice sensitized with egg albumin (ELISA of plasma IgE)). Details: Mus musculus, 240 h; 3 mg/kg/day, oral, once a day for seven times; blood ten days after sensitization; BALB/c mice; read-out: Percentage of the IgE antibody production inhibited.
Type: in vivo, male BALB/c mice
Procedure: Groups of five male BALB/c mice (body weight: 20 to 25 g) each were sensitized by intraperitoneally injection with 4 mg of aluminum hydroxide to which absorbed 10 μg of egg albumin. The test compound is suspended in a gum arabic solution, and the suspensions of different concentrations were orally administered to the animals once a day for seven times in total from immediately after the sensitization. The gum arabic suspension having no test compound added was used for the control.
Blood was collected from the animal ten days after the sensitization, and the collected blood was evaluated for the amount of the IgE antibody produced by ELISA. In brief, the plasma sample was added to immobilized anti-mouse igE antibody, and then, reacting with the anti-mouse IgE antibody having labeled with horseradish peroxidase. The amount of the IgE antibody produced was calculated by using the activity of the horseradish peroxidase for the index (See Meneki-to-Shikkan (Immune and Diseases), 15, 211-216, 1988).
In Table 1, there are shown the amount of the test compounds administered and the percentage of the IgE antibody production inhibited calculated by equation 1: [formula]
`Fc1ccc(-c2cn3cccc4c3c2CCC4)cc1` [Example 99, 8,9-dihydro-1-(4-fluorophenyl)-7H-pyrrolo-[3,2,1-ij]quinoline] showed an inhibition at 3 mg/kg of 43%.
For `Clc1ccc(-c2cn3cccc4c3c2CCC4)cc1` [Example 3, 1-(4-chlorophenyl) -8,9-dihydro-7H-pyrrolo-[3,2,1-ij]quinoline], the inhibition at 3 mg/kg was 64%.

Same assay, conditions: Mus musculus, 240 h; 10 mg/kg/day, oral, once a day for seven times; blood ten days after sensitization; BALB/c mice; read-out: Percentage of the IgE antibody production inhibited
For `Cc1ccc(-c2cn3cccc4c3c2CCC4)cc1` [Example 109, 8,9-dihydro-1-(4-methylphenyl)-7H-pyrrolo-[3,2,1-ij]quinoline], the inhibition at 10 mg/kg was 45%.
For `C=C1CCc2c(-c3ccc(Cl)cc3)cn3cccc1c23` [Example 9, 1-(4-chlorophenyl)-8,9-dihydro-7-methylene-7H-pyrrolo[3,2,1-ij]quinoline], the inhibition at 10 mg/kg was 65%.
In the case of `NC1CCc2c(-c3ccc(Cl)cc3)cn3cccc1c23` (centres unmarked) [Example 7, 7-amino-1-(4-chlorophenyl)-8,9-dihydro-7H-pyrrolo[3,2,1-ij]quinoline], the inhibition at 10 mg/kg is reported as 49%.
`Brc1ccc(-c2cn3cccc4c3c2CCC4)cc1` [Example 100, 1-(4-bromophenyl)-8,9-dihydro-7H-pyrrolo-[3,2,1-ij]quinoline] gave an inhibition at 10 mg/kg of 77%.
Compound `c1ccc2cc(-c3cn4cccc5c4c3CCC5)ccc2c1` [Example 108, 8,9-dihydro-1-(2-naphthyl)-7H-pyrrolo[3,2,1-ij]quinoline] has an inhibition at 10 mg/kg of 71%.

Same assay, conditions: Mus musculus, 240 h; 30 mg/kg/day, oral, once a day for seven times; blood ten days after sensitization; BALB/c mice; read-out: Percentage of the IgE antibody production inhibited
`NN=C1CCc2c(-c3ccc(Br)cc3)cn3cccc1c23` [Example 4, 1-(4-bromophenyl)-8,9-dihydro-7H-pyrrolo[3,2,1-ij]quinolin-7-one hydrazone] gave an inhibition at 30 mg/kg of 47%.
For `NN=C1CCc2c(-c3ccc(Cl)cc3)cn3cccc1c23` [Example 117, 1-(4-chlorophenyl)-8,9-dihydro-7H-pyrrolo-[3,2,1-ij]quinolin-7-one hydrazone], the inhibition at 30 mg/kg was 44%.
Compound `ON=C1CCn2c(-c3ccc4ccccc4c3)nc3cccc1c32` [Reference Example 36, 2-(2-naphthyl)-4,5-dihydro-6H-imidazo[4,5,1-ij]quinolin-6-one oxime] has an inhibition at 30 mg/kg of 50%.
`CC(C)=NN=C1CCc2c(-c3ccc(Cl)cc3)cn3cccc1c23` [Example 124, 1-(4-chlorophenyl)-8,9-dihydro-7H-pyrrolo-[3,2,1-ij]quinolin-7-one isopropylidenehydrazone] was tested, and the inhibition at 30 mg/kg was 45%.
For `O=C1CCc2c(-c3ccc(C(F)(F)F)cc3)cn3cccc1c23` [Example 81, 8,9-dihydro-1-(4-trifluoromethylphenyl)-7H-pyrrolo[3,2,1-ij]quinolin-7-one], the inhibition at 30 mg/kg was 61%.
`FC(F)(F)c1ccc(-c2cn3cccc4c3c2CCC4)cc1` [Example 130, 8,9-dihydro-1-(4-trifluoromethylphenyl)-7H-pyrrolo[3,2,1-ij]quinoline] showed an inhibition at 30 mg/kg of 86%.
For `ON=C1CCn2c(-c3ccc(Br)cc3)nc3cccc1c32` [Reference Example 33, 2-(4-bromophenyl)-4,5-dihydro-6H-imidazo[4,5,1-ij]quinolin-6-one oxime], the inhibition at 30 mg/kg was 41%.
Work on `ON=C1CCc2c(-c3ccc(C(F)(F)F)cc3)cn3cccc1c23` [Example 92, 8,9-dihydro-1-(4-trifluoromethylphenyl)-7H-pyrrolo[3,2,1-ij]quinolin-7-oneoxi] yielded an inhibition at 30 mg/kg of 50%.
With `CON=C1CCn2c(-c3ccc(Cl)cc3)nc3cccc1c32` [Example 16, 2-(4-chlorophenyl)-4,5-dihydro-6-methoxyimino-6H-imidazo[4,5,1-ij]quinoline] the inhibition at 30 mg/kg was 54%.
Compound `ON=C1CCn2c(-c3ccccc3)nc3cccc1c32` [Reference Example 30, 2-phenyl-4,5-dihydro-6H-imidazo-[4,5,1-ij]quinolin-6-one oxime] has an inhibition at 30 mg/kg of 32%.
Compound `NN=C1CCn2c(-c3ccc(Cl)cc3)nc3cccc1c32` [Example 15, 2-(4-chlorophenyl)-4,5-dihydro-6H-imidazo-[4,5,1-ij]quinolin-6-one hydrazone] has an inhibition at 30 mg/kg of 53%.
With `NC1CCn2c(-c3ccc(C(F)(F)F)cc3)nc3cccc1c32` (centres unmarked) [Example 71, 6-amino-4,5-dihydro-2-(4-trifluoromethylphenyl)-imidazo[4,5,1-ij]quinoline] the inhibition at 30 mg/kg was 78%.
`ON=C1CCn2c(-c3ccc(C(F)(F)F)cc3)nc3cccc1c32` [Reference Example 34, 2-(4-trifluoromethylphenyl)-4,5-dihydro-6H-imidazo[4,5,1-ij]quinolin-6-oneoxime] showed an inhibition at 30 mg/kg of 32%.
`NC1CCc2c(-c3ccc(C(F)(F)F)cc3)cn3cccc1c23` (centres unmarked) [Example 132, 7-amino-8,9-dihydro-1-(4-trifluoromethylphenyl)-7H-pyrrolo[3,2,1-ij]quinoline] gave an inhibition at 30 mg/kg of 80%.

Each compound was assayed on sensitized rat peritoneal cells (histamine release) (assay: Activity to suppress the histamine release from passively sensitized rat peritoneal cells). Details: 10 min, 1 μg/ml, 2×10^4 sensitized peritoneal cells, egg albumin, ten minutes, read-out: Percentage of the histamine release suppressed.
Type: cell-based, male Wistar rats
Procedure: Peritoneal cells were collected from male Wistar rats (9 week-old) killed by exsanguination. The cells were washed by centrifugation, and passively sensitized with rat anti-egg albumin serum. 2×10^4 of the sensitized peritoneal cells (1×10^4 of the sensitized peritoneal cells in the case of the compound of Example 12) were reacted with the solution of the test compound (in 0.1% bovine serum albumin solution in HBSS (Hanks' balanced salt solution) containing 0.1% DMSO). Egg albumin was added as allergen, the reaction was allowed to take place for ten minutes. After the cease of the reaction, the amount of the histamine released was determined by post-column fluorometric assay using high-speed liquid chromatography.
The amount of the test compounds administered and the percentage of the histamine release suppressed calculated by equation 2 are shown in Table 2.
Example 123: 1-(4-chlorophenyl)-8,9-dihydro-7H-pyrrolo-[3,2,1-ij]quinolin-7-one tosylhydrazone. [formula]
In the case of `NN=C1CCn2c(-c3ccc(Cl)cc3)nc3cccc1c32` [Example 15, 2-(4-chlorophenyl)-4,5-dihydro-6H-imidazo-[4,5,1-ij]quinolin-6-one hydrazone], the inhibition at 1 µg/mL is reported as 42%.

Same assay, conditions: 10 min, 3 μg/ml, 2×10^4 sensitized peritoneal cells, egg albumin, ten minutes, read-out: Percentage of the histamine release suppressed
For `CC(C)=NN=C1CCn2c(-c3ccc(Cl)cc3)nc3cccc1c32` [Example 14, 2-(4-chlorophenyl)-4,5-dihydro-6H-imidazo-[4,5,1-ij]quinolin-6-one isopropylidenehydrazone], the inhibition at 3 µg/mL was 55%.
Compound `Clc1ccc(-c2cn3cccc4c3c2CCC4=NNc2ccccc2)cc1` [Example 119, 1-(4-chlorophenyl)-8,9-dihydro-7H-pyrrolo-[3,2,1-ij]quinolin-7-one phenylhydrazone] has an inhibition at 3 µg/mL of 42%.
`Clc1ccc(-c2nc3cccc4c3n2CCC4=NNc2ccccc2)cc1` [Example 17, 2-(4-chlorophenyl)-4,5-dihydro-6H-imidazo-[4,5,1-ij]quinolin-6-one phenylhydrazone] was tested, and the inhibition at 3 µg/mL was 40%.
With `Cc1ccc(S(=O)(=O)NN=C2CCc3c(-c4ccc(Cl)cc4)cn4cccc2c34)cc1` [Example 123, 1-(4-chlorophenyl)-8,9-dihydro-7H-pyrrolo-[3,2,1-ij]quinolin-7-one tosylhydrazone] the inhibition at 3 µg/mL was 33%.

Same assay, conditions: 10 min, 10 μg/ml, 1×10^4 sensitized peritoneal cells (Example 12), egg albumin, ten minutes, read-out: Percentage of the histamine release suppressed
`OC1CCn2c(-c3ccc(Cl)cc3)nc3cccc1c32` (centres unmarked) [Example 12, 2-(4-chlorophenyl)-4,5-dihydro-6-hydroxy-6H-imidazo[4,5,1-ij]quinoline] gave an inhibition at 10 µg/mL of 49%.

Same assay, conditions: 10 min, 10 μg/ml, 2×10^4 sensitized peritoneal cells, egg albumin, ten minutes, read-out: Percentage of the histamine release suppressed
`NN=C1CCc2c(-c3ccc(Br)cc3)cn3cccc1c23` [Example 4, 1-(4-bromophenyl)-8,9-dihydro-7H-pyrrolo[3,2,1-ij]quinolin-7-one hydrazone] showed an inhibition at 10 µg/mL of 50%.
Work on `NN=C1CCc2c(-c3ccc(Cl)cc3)cn3cccc1c23` [Example 117, 1-(4-chlorophenyl)-8,9-dihydro-7H-pyrrolo-[3,2,1-ij]quinolin-7-one hydrazone] yielded an inhibition at 10 µg/mL of 47%.
Compound `CCOC(=O)C(=O)NC1CCc2c(-c3ccc(Cl)cc3)cn3cccc1c23` (centres unmarked) [Example 122, 1-(4-chlorophenyl)-8,9-dihydro-7-ethoxyoxalylamino-7H-pyrrolo[3,2,1-ij]quinoline] has an inhibition at 10 µg/mL of 98%.

From US5643920A, “Tricyclic compound having anti-allergic activities” (Mochida Pharmaceutical Co., Ltd., priority 1992, dated 1997)
